Measured values: US12559529B2, “NPY2 receptor agonists” (Boehringer Ingelheim International GmbH, priority 2019, dated 2026)
Like-named read-outs stand apart in the source and are kept apart here.

How the values were obtained:
[1] = tested on: normal NMRI mice; assay: Effect on acute food intake in normal NMRI mice; assay type: in vivo; conditions: male NMRI mice, 10 nmol/kg subcutaneously once
How it was run: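 A single 10 nmol/kg s.c. peptide dose was given 1 h before lights-off to male NMRI mice fasted from 6 h before the night phase (n=7-8). Intake was recorded continuously by microchip-identified HM-2 feeding channels. Values are normalized to vehicle controls (50 mM phosphate buffer pH7 with 5% Mannitol).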

[2] = target: T1, Human Neuropeptide Y2 Receptor (Homo sapiens, UniProt P49146); assay: Radioligand binding competition assay (RLB); conditions: read-out: Ki
T1 construct: purchased CHEMICON HTS066M
T1 sequence (P49146 1-381): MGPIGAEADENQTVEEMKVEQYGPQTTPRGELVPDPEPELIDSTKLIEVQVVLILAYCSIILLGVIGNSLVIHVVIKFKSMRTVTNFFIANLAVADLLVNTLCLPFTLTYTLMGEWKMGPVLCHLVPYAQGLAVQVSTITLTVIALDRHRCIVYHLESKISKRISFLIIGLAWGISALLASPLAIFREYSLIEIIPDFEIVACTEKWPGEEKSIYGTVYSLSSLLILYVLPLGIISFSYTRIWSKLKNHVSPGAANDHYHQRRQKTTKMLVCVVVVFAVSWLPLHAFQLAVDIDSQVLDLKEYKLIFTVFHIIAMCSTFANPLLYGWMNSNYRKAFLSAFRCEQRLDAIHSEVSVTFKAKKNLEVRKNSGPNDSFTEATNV
How it was run: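 Peptide dilutions made in pH 7.4 HEPES assay buffer with 0.2% ovalbumin; human Y2 receptor membranes added at 0.5 μg protein/well; plates shaken 2 h at room temperature; reaction stopped by vacuum filtration onto PEI-treated GF/C filters with ice-cold high-salt washes; radioactivity counted by scintillation.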

Ki ([2]; Table 3, human 125I-PYY (1-36) 0.02 nM, Y2 receptor membranes)	Structure (SMILES)	Acute Food Intake 24 h [% vehicle] [1]	Ki [2]
1.26 nM	CC(C)CC(=O)N[C@@H](C)C(=O)N1CCC[C@H]1C(=O)N[C@@H](CCC(=O)O)C(=O)N[C@@H](CCCCNC(=O)COCCOCCNC(=O)COCCOCCNC(=O)CC[C@H](NC(=O)CCCCCCCCCCCCCCCCC(=O)O)C(=O)O)C(=O)N1CCC[C@H]1C(=O)N[C@@H](CCC(=O)O)C(=O)N[C@@H](C)C(=O)N[C@@H](CC(=O)O)C(=O)N[C@@H](C)C(=O)N[C@@H](CCC(=O)O)C(=O)N1CCC[C@H]1C(=O)N[C@@H](CCC(=O)O)C(=O)N[C@@H](CCC(=O)O)C(=O)N[C@@H](CC(C)C)C(=O)N[C@@H](CCC(N)=O)C(=O)N[C@@H](CCCNC(=N)N)C(=O)N[C@@H](Cc1ccc(O)cc1)C(=O)N[C@@H](Cc1ccc(O)cc1)C(=O)N[C@H](C(=O)N[C@@H](CO)C(=O)N[C@@H](CC(C)C)C(=O)N[C@@H](CCCNC(=N)N)C(=O)N[C@@H](Cc1c[nH]cn1)C(=O)N[C@@H](Cc1ccc(O)cc1)C(=O)N[C@@H](Cc1ccc(O)cc1)C(=O)N[C@@H](CC(N)=O)C(=O)N[C@@H](Cc1c[nH]c2ccccc12)C(=O)N[C@@H](CC(C)C)C(=O)N[C@H](C(=O)N[C@@H](CCCNC(=N)N)C(=O)N[C@@H](CCC(N)=O)C(=O)N[C@@H](CCCNC(=N)N)C(=O)N[C@@H](Cc1ccc(O)cc1)C(N)=O)[C@@H](C)O)C(C)C [Compound 56, N{alpha-4}-(3-methylbutanoyl)-N{epsilon-7}-[2-(2-{2-[2-(2-{2-[(4S)-4-carboxy-4-(17-carboxyheptadecanamido)butanamido]ethoxy}ethoxy)acetamido]ethoxy}ethoxy)acetamido]-[4A,7K,9E,10A,13E,18Q,22V,28Y,30W,31L]hPYY (4-36)]	53 % vehicle	–
–	CC(C)CC(=O)N[C@@H](C)C(=O)N1CCC[C@H]1C(=O)N[C@@H](CCC(=O)O)C(=O)N[C@@H](CCCCNC(=O)COCCOCCNC(=O)COCCOCCNC(=O)CC[C@H](NC(=O)CCCCCCCCCCCCCCCCC(=O)O)C(=O)O)C(=O)N1CCC[C@H]1C(=O)N[C@@H](CCC(=O)O)C(=O)N[C@@H](CCC(=O)O)C(=O)N[C@@H](CCC(=O)O)C(=O)N[C@@H](C)C(=O)N[C@@H](CO)C(=O)N[C@@H](CCC(=O)O)C(=O)N[C@@H](CCC(=O)O)C(=O)N[C@@H](CCC(=O)O)C(=O)N[C@@H](CC(C)C)C(=O)N[C@@H](CCC(N)=O)C(=O)N[C@@H](CCCNC(=N)N)C(=O)N[C@@H](Cc1ccc(O)cc1)C(=O)N[C@@H](Cc1ccc(O)cc1)C(=O)N[C@H](C(=O)N[C@@H](CO)C(=O)N[C@@H](CC(C)C)C(=O)N[C@@H](CCCNC(=N)N)C(=O)N[C@@H](Cc1c[nH]cn1)C(=O)N[C@@H](Cc1ccc(O)cc1)C(=O)N[C@@H](Cc1ccc(O)cc1)C(=O)N[C@@H](CC(N)=O)C(=O)N[C@@H](Cc1c[nH]c2ccccc12)C(=O)N[C@@H](CC(C)C)C(=O)N[C@H](C(=O)N[C@@H](CCCNC(=N)N)C(=O)N[C@@H](CCC(N)=O)C(=O)N[C@@H](CCCNC(=N)N)C(=O)N[C@@H](Cc1ccc(O)cc1)C(N)=O)[C@@H](C)O)C(C)C [Compound 79, N{alpha-4}-(3-methylbutanoyl)-N{epsilon-7}-[2-(2-{2-[2-(2-{2-[(4S)-4-carboxy-4-(17-carboxyheptadecanamido)butanamido]ethoxy}ethoxy)acetamido]ethoxy}ethoxy)acetamido]-[4A,7K,9E,11E,14E,18Q,22V,28Y,30W,31L]hPYY (4-36)]	75 % vehicle	4.52 nM
